GI50 and mean GI50 data for four molecules are collected here from ChEMBL document CHEMBL1133062, “The synthesis and in vitro cytotoxic studies of novel bis-naphthalimidopropyl polyamine derivatives” (2000).

Common to all, as to assay type: functional
Test [1] has as its system 786-0. Kind of test: The compound was tested for its cytotoxic activity against the following renal cancer cell lines 786-0. The conditions noted are these: Homo sapiens.
Test [2] has as its system Breast carcinoma cell. Kind of test: The compound was tested for its growth inhibitory activity against breast cancer cell line. Particulars: Homo sapiens.
The test system of test [3] is CNS carcinoma cell. The test can be described thus: The compound was tested for its growth inhibitory activity against CNS cancer cell line. Particulars: Homo sapiens.
Test [4] has as its system Colon carcinoma cell. The test can be described thus: The compound was tested for its growth inhibitory activity against colon cancer cell line. Particulars: Homo sapiens.
Test [5] concerns EKVX. Kind of test: The compound was tested for its cytotoxic activity against the following non small cell lung cancer cell lines EKVX. Particulars: Homo sapiens.
The test system of test [6] is HCT-15. Kind of test: The compound was tested for its cytotoxic activity against the following colon cancer cell lines HCT-15. The conditions noted are these: Homo sapiens.
Test [7] relates to HL-60. Kind of test: The compound was tested for its growth inhibitory activity against […] cancer cell line HL60-TB. Particulars: Homo sapiens.
Test [8] concerns Hs-578T. Kind of test: The compound was tested for its cytotoxic activity against the following breast cancer cell lines HS 578T. Particulars: Homo sapiens.
The subject of test [9] is IGROV-1. The test can be described thus: The compound was tested for its cytotoxic activity against the following ovarian cancer cell lines IGROVI. The conditions noted are these: Homo sapiens.
Test [10] concerns K562. Kind of test: The compound was tested for its cytotoxicity against the following leukemia cell line K-562. Particulars: Homo sapiens.
Test [11] has as its system Panel leukemia (Carcinoma cell lines). The test can be described thus: The compound was tested for its growth inhibitory activity against leukemia cell line. Particulars: Homo sapiens.
Test [12] concerns Lung cancer cell line. Kind of test: The compound was tested for its growth inhibitory activity against non small cell lung cancer cell line. The conditions noted are these: Homo sapiens.
Test [13] relates to NCI-H522. Kind of test: The compound was tested for its cytotoxic activity against the following non small cell lung cancer cell lines NCI-H522. Particulars: Homo sapiens.
The test system of test [14] is NCI/ADR-RES. The test can be described thus: The compound was tested for its cytotoxic activity against the following breast cancer cell lines NCI / ADR-RES. The conditions noted are these: Homo sapiens.
Test [15] relates to Ovarian carcinoma cell. The test can be described thus: The compound was tested for its growth inhibitory activity against ovarian cancer cell line. Particulars: Homo sapiens.
The subject of test [16] is Prostatic carcinoma cell. Kind of test: The compound was tested for its growth inhibitory activity against prostate cancer cell line. The conditions noted are these: Homo sapiens.
The test system of test [17] is Renal cancer cell line. The test can be described thus: The compound was tested for its growth inhibitory activity against renal cancer cell line. The conditions noted are these: Homo sapiens.
Test [18] concerns SF-268. The test can be described thus: The compound was tested for its cytotoxic activity against the following CNS cancer cell lines SF-268. The conditions noted are these: Homo sapiens.
Test [19] relates to SW-620. The test can be described thus: The compound was tested for its cytotoxic activity against the following colon cancer cell lines SW-620. Particulars: Homo sapiens.
Test [20] concerns SF-295. The test can be described thus: The compound was tested for its cytotoxic activity against the following CNS cancer cell lines SF-295. Particulars: Homo sapiens.
Test [21] concerns SK-OV-3. The test can be described thus: The compound was tested for its cytotoxic activity against the following ovarian cancer cell lines SK-OV-3. The conditions noted are these: Homo sapiens.
For test [22], the system named is UO-31. Kind of test: The compound was tested for its cytotoxic activity against the following renal cancer cell lines UO-31. The conditions noted are these: Homo sapiens.
Test [23] can be described thus: Mean value for over all cell lines tested.
In test [24] the test system is Melanoma cell. The test can be described thus: The compound was tested for its growth inhibitory activity against melanoma, human cancer cell line.

Take `Br.Br.Br.Br.O=C1c2cccc3cccc(c23)C(=O)N1CCCNCCCNCCCCNCCCNCCCN1C(=O)c2cccc3cccc(c23)C1=O`: the GI50 (as a rule, the concentration giving 50% growth inhibition) amounted to 0.555 µM in test [1]; 4.49 µM in test [2]; 4.07 µM in test [3]; 4.23 µM in [4]; 4.5 µM in test [5]; 12.8 µM in test [6]. Also, the GI50 is 0.033 µM in test [7]; 0.63 µM in test [8]; 0.856 µM in test [9]; 3.6 µM in test [10]; 1.43 µM in [11]; 3.51 µM in test [12]. The concentration for 50% growth inhibition (GI50) was 0.825 µM in test [13]; 15.1 µM in test [14]; 6.12 µM in test [15]; 3.46 µM in test [16]; 7.43 µM in test [17]; 0.722 µM in [18]. The GI50 was 1.16 µM in [19]; 5.35 µM in test [20]; 10.8 µM in test [21]; 10.8 µM in [22]; 4.04 µM in test [24]. The molecule further displayed a mean GI50 in test [23] of 4.31 µM.

In the case of `Br.Br.O=C1c2cccc3cccc(c23)C(=O)N1CCCNCCCCNCCCN1C(=O)c2cccc3cccc(c23)C1=O`, the GI50 worked out at 0.024 µM in test [1]; 2.26 µM in test [2]; 0.29 µM in test [3]; 0.59 µM in test [4]; 1.37 µM in test [5]; 2.66 µM in test [6]. The GI50 was 0.222 µM in test [7]; 0.065 µM in test [8]; 0.082 µM in test [9]; 0.012 µM in [10]; 0.08 µM in test [11]; 0.53 µM in test [12]. Besides, the GI50 amounted to 0.013 µM in [13]; 13.1 µM in [14]; 0.34 µM in test [15]; 0.13 µM in [16]; 0.57 µM in [17]; 0.029 µM in test [18]. For the same molecule, the GI50 was determined as 0.037 µM in test [19]; 0.488 µM in test [20]; 0.722 µM in test [21]; 1.91 µM in test [22]; 0.44 µM in [24]. In test [23], this molecule registered a mean GI50 of 0.58 µM.

For the molecule `Br.Br.Br.O=C1c2cccc3cccc(c23)C(=O)N1CCCNCCCCNCCCNCCCN1C(=O)c2cccc3cccc(c23)C1=O`, the GI50 in test [1] turned out to be 0.185 µM; in [2] it was 3.49 µM; in test [3] it was 1.16 µM; in test [4], 2.35 µM; in test [5] it was 1.05 µM; in [6], 10.9 µM. Also, the GI50 in test [7] amounted to 0.156 µM; in [8], 0.044 µM; in [9], 0.267 µM; in [10], 1.17 µM; in test [11], 0.25 µM; in [12], 0.58 µM. The GI50 in [13] stood at 0.03 µM; in test [14], 19.5 µM; in test [15], 0.79 µM; in test [16], 0.46 µM; in test [17] it was 2.49 µM; in [18] it was 0.111 µM. The GI50 amounted to 0.449 µM in test [19]; 4.78 µM in test [20]; 1.31 µM in test [21]; 10.6 µM in test [22]; 1.17 µM in [24]. In test [23], this molecule displayed a mean GI50 of 1.42 µM.

As to `Br.Br.O=C1c2cccc3cccc(c23)C(=O)N1CCCNOCCONCCCN1C(=O)c2cccc3cccc(c23)C1=O`, the GI50 is 77.6 µM in test [2]; 65.9 µM in [3]; 73.2 µM in test [4]; 25.7 µM in [11]; 72.7 µM in test [12]; 81 µM in [15]. The GI50 is 77.5 µM in test [16], 65.4 µM in test [17] and 78 µM in test [24]. Besides, in test [23], the mean GI50 came to 68.5 µM.
